{"source": "patent US20100210464A1", "about": "“HERBICIDAL COMPOSITION AND METHOD OF USE THEREOF” (SYNGENTA CROP PROTECTION, INC., priority 2007, published 2010)", "format_in_all_cases": "in vivo", "key": {"[1]": {"tested_on": "white clover (Trifolium repens)", "test": "Glasshouse trial, control of white clover, granules applied post-emergence (Example 4)", "settings": "pendimethalin granules 1120 g ai/ha + mesotrione granules 200 g ai/ha", "procedure": "200 litres of herbicide/adjuvant system was used per hectare. General weed control was evaluated at 7 and 14 days after treatment (DAT). It is noted that all herbicides were applied at reduced field rates because herbicide effects are magnified in a glasshouse environment. Rates were chosen to give a 50 to 70% level of control with herbicides applied alone as this allows for detection of any synergistic effect when tank mixtures are used. The results were evaluated using the Colby formula. The expected result for (A+B) is (A+B)−(A×B/100) where A and B are the ‘observed’ results for A and B on their own. […] A glasshouse trial was carried out as described in Example 1, except that the herbicides were applied in the form of granules. Mesotrione granules were made by spraying a mesotrione millbase (28% SC formulation) onto a granular carrier, Agsorb LVM-GA 24/48. Pendimethalin granules were made by adding Prowl® 3.3EC (37.4%) and Agsorb LVM-GA 24/48 granules into a tumbler, followed by spraying with a binder, HiSil 233. For testing mixtures of mesotrione and pendimethalin, the appropriate number of granules for each herbicide were weighed and thoroughly mixed. Granules were weighed for each individual pot using an amount equivalent to the rates listed in Table 2, and, based on a pot surface area of 10 cm^2, were carefully hand sprinkled on the emerged plants and pot surface. […]"}, "[2]": {"tested_on": "goosegrass (Eleusine indica)", "test": "Glasshouse trial, control of goosegrass, spray applied pre-emergence (Example 1)", "settings": "for Actual weed control, Plus Mesotrione at 100 g ai/ha: X-77 0.1% v/v", "procedure": "(§1) In the following tests, herbicides were applied at reduced field rates because herbicide effects are magnified in a glasshouse environment. The rates tested were selected to give between about 50 and 70% control with herbicides applied alone, so that any synergistic effect could be readily detected when testing mixtures. A glasshouse trial was carried out. Goosegrass seeds were sown into standard glasshouse potting mix (1:1 v/v Promix:Vero sand soil) contained in 10 cm square plastic pots. Treatments were replicated three times. Mesotrione (in the form Callisto® 480SE) was applied pre-emergence to goosegrass (Eleusine indica) at 100 g ai/ha with or without pendimethalin (in the form Prowl® H2O). When used, pendimethalin was applied at a rate of 140 g ai/ha or 280 g ai/ha. The adjuvant system was X-77 at 0.1% v/v in deionised water. 200 litres of herbicide/adjuvant system was used per hectare. General weed control was evaluated at 7 and 14 days after treatment (DAT). It is noted that all herbicides were applied at reduced field rates because herbicide effects are magnified in a glasshouse environment. Rates were chosen to give a 50 to 70% level of control with herbicides applied alone as this allows for detection of any synergistic effect when tank mixtures are used. The results were evaluated using the Colby formula. The expected result for (A+B) is (A+B)−(A×B/100) where A and B are the ‘observed’ results for A and B on their own."}, "[3]": {"tested_on": "goosegrass (Eleusine indica)", "test": "Glasshouse trial, control of goosegrass, granules applied pre-emergence (Example 2)", "procedure": "as §1, with “A” for “In the following tests, herbicides were applied at reduced field rates because herbicide effects are magnified in a glasshouse environment. The rates tested were selected to give between about 50 and 70% control with herbicides applied alone, so that any synergistic effect could be readily detected when testing mixtures. A”, “own. […] A glasshouse trial was carried out as described in Example 1, except that the herbicides were applied in the form of granules. Mesotrione granules were made by spraying a mesotrione millbase (28% SC formulation) onto a granular carrier, Agsorb LVM-GA 24/48. Pendimethalin granules were made by adding Prowl® 3.3EC (37.4%) and Agsorb LVM-GA 24/48 granules into a tumbler, followed by spraying with a binder, HiSil 233. For testing mixtures of mesotrione and pendimethalin, the appropriate number of granules for each herbicide were weighed and thoroughly mixed. […]” for “own.”"}, "[4]": {"settings": "pendimethalin granules 140 g ai/ha + mesotrione granules 100 g ai/ha"}, "[5]": {"settings": "pendimethalin granules 140 g ai/ha + mesotrione granules 200 g ai/ha"}, "[6]": {"settings": "pendimethalin granules 280 g ai/ha + mesotrione granules 100 g ai/ha"}, "[7]": {"settings": "pendimethalin granules 280 g ai/ha + mesotrione granules 200 g ai/ha"}}, "note": "Marks after values point to notes of the source that are not given here."}
{"compound": "CCC(CC)Nc1c([N+](=O)[O-])cc(C)c(C)c1[N+](=O)[O-]", "note": "[Pendimethalin, N-(1-ethylpropyl)-3,4-dimethyl-2,6-dinitrobenzenamine]", "values": [{"measurement": "Actual weed control, Plus Mesotrione at 200 g ai/ha", "setting": "[1]", "result": "93* %"}, {"measurement": "Expected weed control (Colby formula), Plus Mesotrione at 200 g ai/ha", "setting": "[1]", "result": 76, "unit": "%"}, {"measurement": "Expected weed control (Colby formula), Plus Mesotrione at 100 g ai/ha", "setting": "[2]; pendimethalin 140 g ai/ha + mesotrione 100 g ai/ha", "result": 22, "unit": "%"}, {"measurement": "Expected weed control (Colby formula), Plus Mesotrione at 100 g ai/ha", "setting": "[2]; pendimethalin 280 g ai/ha + mesotrione 100 g ai/ha", "result": 22, "unit": "%"}, {"measurement": "Actual weed control, Plus Mesotrione at 100 g ai/ha", "setting": "[2]; pendimethalin (Prowl H2O) 140 g ai/ha + mesotrione (Callisto 480SE) 100 g ai/ha", "result": "35* %"}, {"measurement": "Actual weed control, Plus Mesotrione at 100 g ai/ha", "setting": "[2]; pendimethalin (Prowl H2O) 280 g ai/ha + mesotrione (Callisto 480SE) 100 g ai/ha", "result": "37* %"}, {"measurement": "Actual weed control, Plus Mesotrione at 100 g ai/ha", "setting": "[3]; [4]", "result": "67* %"}, {"measurement": "Expected weed control (Colby formula), Plus Mesotrione at 100 g ai/ha", "setting": "[3]; [4]", "result": 48, "unit": "%"}, {"measurement": "Actual weed control, Plus Mesotrione at 200 g ai/ha", "setting": "[3]; [5]", "result": "95* %"}, {"measurement": "Expected weed control (Colby formula), Plus Mesotrione at 200 g ai/ha", "setting": "[3]; [5]", "result": 80, "unit": "%"}, {"measurement": "Actual weed control, Plus Mesotrione at 100 g ai/ha", "setting": "[3]; [6]", "result": "87* %"}, {"measurement": "Expected weed control (Colby formula), Plus Mesotrione at 100 g ai/ha", "setting": "[3]; [6]", "result": 49, "unit": "%"}, {"measurement": "Actual weed control, Plus Mesotrione at 200 g ai/ha", "setting": "[3]; [7]", "result": "100* %"}, {"measurement": "Expected weed control (Colby formula), Plus Mesotrione at 200 g ai/ha", "setting": "[3]; [7]", "result": 80, "unit": "%"}]}
